Laboratory results from PMC9068610, “Biliverdin regulates NR2E3 and zebrafish retinal photoreceptor development” (Scientific Reports, 2022).
Where a chain is given by its changes, count along the chain named.

Experiments:
Format in all cases: binding
[1] = target: T1, NR2E3 (Homo sapiens, UniProt Q9Y5X4, R311Q); experiment: visible absorbance titration
T1 construct: MBP-NR2E3 LBD R311Q variant
T1 sequence (Q9Y5X4 164-410 R311Q): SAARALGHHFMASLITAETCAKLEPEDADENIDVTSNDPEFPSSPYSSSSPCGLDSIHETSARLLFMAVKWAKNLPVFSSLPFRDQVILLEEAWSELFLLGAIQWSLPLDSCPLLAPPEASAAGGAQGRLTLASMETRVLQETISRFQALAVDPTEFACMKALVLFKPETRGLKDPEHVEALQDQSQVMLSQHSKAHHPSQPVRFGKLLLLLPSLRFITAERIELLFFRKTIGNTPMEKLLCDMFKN

[2] = target: T2, zebrafish NR2E3 (Danio rerio, UniProt Q5U3F3); experiment: visible absorbance titration
T2 construct: MBP-DrNR2E3 LBD
T2 sequence (Q5U3F3 178-419 limits assumed): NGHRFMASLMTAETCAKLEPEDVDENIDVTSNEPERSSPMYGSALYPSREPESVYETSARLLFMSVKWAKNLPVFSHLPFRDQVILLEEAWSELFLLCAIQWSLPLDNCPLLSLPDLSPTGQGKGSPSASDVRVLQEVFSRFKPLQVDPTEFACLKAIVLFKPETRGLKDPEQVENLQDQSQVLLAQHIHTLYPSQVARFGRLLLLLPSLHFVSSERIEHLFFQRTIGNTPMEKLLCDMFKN

[3] = target: T3, NR2E3 (Homo sapiens, UniProt Q9Y5X4); experiment: visible absorbance titration; also gel filtration co-purification with LC-MS
T3 construct: MBP-NR2E3 LBD (amino acid residues 164–410 of 410 residue NR2E3)
T3 sequence (Q9Y5X4 164-410): T1 sequence (Q9Y5X4 164-410 R311Q) with Q148R

C=CC1=C(C)/C(=C/C2=NC(=C\c3[nH]c(/C=C4\NC(=O)C(C)=C4C=C)c(C)c3CCC(=O)O)/C(CCC(=O)O)=C2C)NC1=O [biliverdin]
Kd [1]: 9 µM | visible absorbance titration [2]: the spectrum of biliverdin showed changes similar to the one observed with human NR2E3^LBD | Kd [3]: 0.2 µM
